Data published in ChEMBL document CHEMBL1124679, “A novel lead for specific anti-HIV-1 agents: 1-[(2-hydroxyethoxy)methyl]-6-(phenylthio)thymine” (J Med Chem, 1989).

Experiments:
MT4 [1] = test: Concentration required to achieve 50% protection of MT-4 cells against cytopathic effect of HIV-1; format: functional, cell-based; conditions: Homo sapiens
MT4 [2] = test: Cytotoxic concentration of compound required to reduce the viability of mock-infected MT-4 cells by 50%; format: functional; conditions: Homo sapiens
[3] = Selectivity index is the ratio of CC50/EC50; format: functional
[4] = molecular target: T1, Human immunodeficiency virus type 1 reverse transcriptase (Human immunodeficiency virus 1, UniProt Q72547); test: Inhibitory effect on HIV-1 reverse transcriptase activity using poly(rA)-oligo(dT) template primer
[5] = molecular target: T1, Human immunodeficiency virus type 1 reverse transcriptase; test: Inhibitory effect on HIV-1 reverse transcriptase activity using poly(rC)-oligo(dG) template primer

| IC50 [4] | Compound | EC50 (MT4 [1]) | CC50 (MT4 [2]) | SI [3] | IC50 [5] |
| --- | --- | --- | --- | --- | --- |
| – | Cc1cn([C@H]2C[C@H](N=[N+]=[N-])[C@@H](CO)O2)c(=O)[nH]c1=O [ZIDOVUDINE] | 0.016 µM | 20 µM | 1250 | – |
| – | Nc1ncnc2c1ncn2[C@H]1CC[C@@H](CO)O1 | 6.3 µM | 890 µM | 141 | – |
| 0.034 µM | Cc1cn(C2CC(N=[N+]=[N-])C(COP(=O)(O)P(=O)(O)P(=O)(O)O)O2)c(=O)[nH]c1=O (stereo not drawn) | – | – | – | – |
| – | O=c1cc(I)n(COCCO)c(=O)[nH]1 | > 30 µM | 75 µM | < 2.5 | – |
| – | O=c1cc(Sc2ccccc2)n(COCCO)c(=O)[nH]1 | > 500 µM | 1850 µM | < 3.7 | – |
| – | Nc1ccn([C@H]2CC[C@@H](CO)O2)c(=O)n1 [ZALCITABINE] | 0.3 µM | 40 µM | 133 | – |
| – | O=c1[nH]c(=O)n(COCCO)c(Sc2ccccc2)c1F | > 100 µM | 288 µM | < 2.9 | – |
| – | O=c1[nH]c(=O)n(COCCO)c(Sc2ccccc2)c1Br | > 20 µM | 44 µM | < 2.2 | – |
| – | O=c1[nH]c(=O)n(COCCO)c(I)c1Br | > 5 µM | 11.5 µM | < 2.3 | – |
| – | Cc1c(I)n(COCCO)c(=O)[nH]c1=O | > 80 µM | 400 µM | < 5 | – |
| – | O=c1[nH]c(=O)n(COCCO)c(Sc2ccccc2)c1Cl | > 30 µM | 100 µM | < 3.4 | – |
| – | O=c1[nH]c(=O)n(COCCO)c(I)c1Cl | > 6 µM | 13 µM | < 2.2 | – |
| – | O=c1[nH]c(=O)n(COCCO)c(I)c1F | > 15 µM | 32 µM | < 2.1 | – |
| 280 µM | Cc1c(Sc2ccccc2)n(COCCOP(=O)(O)P(=O)(O)P(=O)(O)O)c(=O)[nH]c1=O | – | – | – | 500 µM |

| Compound | IC50 [4] | EC50 (MT4 [1]) | CC50 (MT4 [2]) | SI [3] | IC50 [5] |
| --- | --- | --- | --- | --- | --- |
| Cc1c(Sc2ccccc2)n(COCCO)c(=O)[nH]c1=O [HEPT] | > 500 µM | 7 µM | 740 µM | – | 150 µM |
